Reference: ChEMBL document CHEMBL2363022, “Malaria Box Schistosomiasis Screening Data” (2013)

Experiments:
Assay type in all cases: functional
Parameters in all cases: scale not given here
Schistosoma mansoni [1] = system: Schistosoma mansoni
Schistosoma mansoni [2] = system: Schistosoma mansoni; remark: listed apart in the source
Schistosoma mansoni [3] = system: Schistosoma mansoni; remark: listed apart in the source

## COc1ccccc1NC1=C(N2CCCCC2)C(=O)c2ccccc2C1=O
Schistosoma mansoni [1]
  Toxicity: 4
Schistosoma mansoni [2]
  Toxicity: 4
Schistosoma mansoni [3]
  Toxicity: 4

## CCOC(=O)C1=C(C)N=c2sc(=Cc3ccccc3O)c(=O)n2C1c1ccc(OC)c2ccccc12 (configuration not stated)
Schistosoma mansoni [1]
  Toxicity: 4
Schistosoma mansoni [2]
  Toxicity: 0
Schistosoma mansoni [3]
  Toxicity: 0

## COc1ccccc1CNC(=O)CCn1c(=O)[nH]c2ccccc2c1=O
Schistosoma mansoni [1]
  Toxicity: 0
Schistosoma mansoni [2]
  Toxicity: 0
Schistosoma mansoni [3]
  Toxicity: 0

## CCCCNc1nc(NC(C)(C)C)nc(NC(C)(C)C)n1
Schistosoma mansoni [1]
  Toxicity: 4
Schistosoma mansoni [2]
  Toxicity: 0
Schistosoma mansoni [3]
  Toxicity: 4

## COc1ccc(N2CCN(C(CNC(=O)CC(C)(C)C)c3ccc4c(c3)OCO4)CC2)cc1 (configuration not stated)
Schistosoma mansoni [1]
  Toxicity: 0
Schistosoma mansoni [2]
  Toxicity: 0
Schistosoma mansoni [3]
  Toxicity: 0

## Cc1sc2ncnc(Sc3nc4ccccc4[nH]3)c2c1C
Schistosoma mansoni [1]
  Toxicity: 0
Schistosoma mansoni [2]
  Toxicity: 1
Schistosoma mansoni [3]
  Toxicity: 1

## CSc1ccccc1C(=O)Nc1nc(-c2ccccn2)cs1
Schistosoma mansoni [1]
  Toxicity: 0
Schistosoma mansoni [2]
  Toxicity: 0
Schistosoma mansoni [3]
  Toxicity: 0

## CCC(O)c1ccc(Br)cc1NC(=O)c1cccc(Cl)c1 (configuration not stated)
Schistosoma mansoni [1]
  Toxicity: 0
Schistosoma mansoni [2]
  Toxicity: 0
Schistosoma mansoni [3]
  Toxicity: 0

## O=C(Nc1cccc(-c2nc3ccccc3[nH]2)c1)c1cccc(NC(=O)c2ccco2)c1
Schistosoma mansoni [1]
  Toxicity: 1
Schistosoma mansoni [2]
  Toxicity: 0
Schistosoma mansoni [3]
  Toxicity: 0

## CC(C)(C)c1ccc(C2CC3=Nc4ccccc4N(C(=O)c4ccccc4Cl)C(c4ccc(F)cc4)C3=C(O)C2)cc1 (configuration not stated)
Schistosoma mansoni [1]
  Toxicity: 4
Schistosoma mansoni [2]
  Toxicity: 1
Schistosoma mansoni [3]
  Toxicity: 1

## Cc1ccc(-c2cc3nc4c(c(O)n3n2)CCCC4)cc1
Schistosoma mansoni [1]
  Toxicity: 0
Schistosoma mansoni [2]
  Toxicity: 0
Schistosoma mansoni [3]
  Toxicity: 0

## Cc1cc(NCCN2CCCCC2)c2ccc3ccccc3c2n1
Schistosoma mansoni [1]
  Toxicity: 4
Schistosoma mansoni [2]
  Toxicity: 4
Schistosoma mansoni [3]
  Toxicity: 4

## CCC(C)NCC(O)(c1ccc(Cl)cc1)c1ccc(Cl)cc1 (configuration not stated)
Schistosoma mansoni [1]
  Toxicity: 0
Schistosoma mansoni [2]
  Toxicity: 1
Schistosoma mansoni [3]
  Toxicity: 0

## CCCCNCC(O)(c1ccc(Cl)cc1)c1ccc(Cl)cc1
Schistosoma mansoni [1]
  Toxicity: 0
Schistosoma mansoni [2]
  Toxicity: 0
Schistosoma mansoni [3]
  Toxicity: 0

## COc1ccc2c(c1)OC(O)(C(F)(F)C(F)(F)F)CC2=O (configuration not stated)
Schistosoma mansoni [1]
  Toxicity: 0
Schistosoma mansoni [2]
  Toxicity: 0
Schistosoma mansoni [3]
  Toxicity: 0

## O=C(Nc1ccc(-c2nc3ccccc3[nH]2)cc1)c1ccc(Cl)c(Cl)c1
Schistosoma mansoni [1]
  Toxicity: 0
Schistosoma mansoni [2]
  Toxicity: 0
Schistosoma mansoni [3]
  Toxicity: 0

## CCOC(=O)C1=CN(C)C=C(C(=O)OCC)C1c1cc(Br)c(OCC)c(OC)c1
Schistosoma mansoni [1]
  Toxicity: 0
Schistosoma mansoni [2]
  Toxicity: 0
Schistosoma mansoni [3]
  Toxicity: 0

## COc1ccc(C2Sc3ccccc3N=C3C2=C(O)c2ccccc23)cc1 (configuration not stated)
Schistosoma mansoni [1]
  Toxicity: 0
Schistosoma mansoni [2]
  Toxicity: 0
Schistosoma mansoni [3]
  Toxicity: 0

## COCCn1c(C)nc2ccccc2c1=O
Schistosoma mansoni [1]
  Toxicity: 0
Schistosoma mansoni [2]
  Toxicity: 0
Schistosoma mansoni [3]
  Toxicity: 0

## CC1CN(C(=O)c2sc3ccccc3c2Cl)CC(C)O1 (configuration not stated)
Schistosoma mansoni [1]
  Toxicity: 0
Schistosoma mansoni [2]
  Toxicity: 0
Schistosoma mansoni [3]
  Toxicity: 0

## Cc1cc(=O)oc2c1ccc1oc(C(=O)c3ccccc3)c(C)c12
Schistosoma mansoni [1]
  Toxicity: 0
Schistosoma mansoni [2]
  Toxicity: 0
Schistosoma mansoni [3]
  Toxicity: 0

## Cc1cc(Nc2ccc3ccccc3c2)n2ncnc2n1
Schistosoma mansoni [1]
  Toxicity: 1
Schistosoma mansoni [2]
  Toxicity: 0
Schistosoma mansoni [3]
  Toxicity: 1

## CCCCc1c(C)nc2c(OC)cccc2c1O
Schistosoma mansoni [1]
  Toxicity: 0
Schistosoma mansoni [2]
  Toxicity: 0
Schistosoma mansoni [3]
  Toxicity: 0

## COc1cc(OC)cc(N2C(=O)N(Cc3ccc(C(C)(C)C)cc3)c3ccccc3S2(=O)=O)c1
Schistosoma mansoni [1]
  Toxicity: 0
Schistosoma mansoni [2]
  Toxicity: 0
Schistosoma mansoni [3]
  Toxicity: 0

## Nc1ccc(-c2nc3cc(Oc4ccc(Oc5ccc6[nH]c(-c7ccc(N)cc7)nc6c5)cc4)ccc3[nH]2)cc1
Schistosoma mansoni [1]
  Toxicity: 2
Schistosoma mansoni [2]
  Toxicity: 0
Schistosoma mansoni [3]
  Toxicity: 0

## O=C(Nc1ccc(N2CCCCC2)c(Cl)c1)c1ccc(Br)o1
Schistosoma mansoni [1]
  Toxicity: 0
Schistosoma mansoni [2]
  Toxicity: 0
Schistosoma mansoni [3]
  Toxicity: 0

## CCOC(=O)c1c[nH]c2c(CC)cccc2c1=O
Schistosoma mansoni [1]
  Toxicity: 3
Schistosoma mansoni [2]
  Toxicity: 0
Schistosoma mansoni [3]
  Toxicity: 0

## COc1ccc(-c2cc(=O)oc3c4c(ccc23)OCN(Cc2ccc(F)cc2)C4)cc1
Schistosoma mansoni [1]
  Toxicity: 0
Schistosoma mansoni [2]
  Toxicity: 0
Schistosoma mansoni [3]
  Toxicity: 0

## OC1CCCCC1C1(NC(=S)Nc2ccccc2)CCCCC1 (configuration not stated)
Schistosoma mansoni [1]
  Toxicity: 0
Schistosoma mansoni [2]
  Toxicity: 0
Schistosoma mansoni [3]
  Toxicity: 0

## CCOC(=O)c1cnc2ccc(Cl)cc2c1NCCCN(C)C
Schistosoma mansoni [1]
  Toxicity: 1
Schistosoma mansoni [2]
  Toxicity: 1
Schistosoma mansoni [3]
  Toxicity: 1

## COc1ccc(CN2CCN(Cc3ccccc3)CC2)c(O)c1
Schistosoma mansoni [1]
  Toxicity: 0
Schistosoma mansoni [2]
  Toxicity: 0
Schistosoma mansoni [3]
  Toxicity: 0

## Cc1ccc2cc3c(N)c4c(C)ccc(C)c4nc3nc2c1
Schistosoma mansoni [1]
  Toxicity: 0
Schistosoma mansoni [2]
  Toxicity: 0
Schistosoma mansoni [3]
  Toxicity: 0

## COc1ccc(N2CCN(C(CNC(=O)C3CCCCC3)c3ccc4c(c3)OCO4)CC2)cc1 (configuration not stated)
Schistosoma mansoni [1]
  Toxicity: 0
Schistosoma mansoni [2]
  Toxicity: 0
Schistosoma mansoni [3]
  Toxicity: 0

## c1ccc(CNc2nc(Nc3ccccc3)nc3ccccc23)cc1
Schistosoma mansoni [1]
  Toxicity: 2
Schistosoma mansoni [2]
  Toxicity: 2
Schistosoma mansoni [3]
  Toxicity: 2

## COc1cccc(Nc2nc(NCCO)c3ccccc3n2)c1.Cl
Schistosoma mansoni [1]
  Toxicity: 0
Schistosoma mansoni [2]
  Toxicity: 0
Schistosoma mansoni [3]
  Toxicity: 0

## CCOc1ccc(N2C(N)=NC(N)=NC2(C)C)cc1.Cl
Schistosoma mansoni [1]
  Toxicity: 0
Schistosoma mansoni [2]
  Toxicity: 0
Schistosoma mansoni [3]
  Toxicity: 0

## COc1cc(-c2nc(-c3ccccc3)c(-c3ccccc3)[nH]2)cc(OC)c1O
Schistosoma mansoni [1]
  Toxicity: 0
Schistosoma mansoni [2]
  Toxicity: 0
Schistosoma mansoni [3]
  Toxicity: 0

## CCC(c1ccccc1)c1nn2c(-c3cccs3)nnc2s1 (configuration not stated)
Schistosoma mansoni [1]
  Toxicity: 0
Schistosoma mansoni [2]
  Toxicity: 0
Schistosoma mansoni [3]
  Toxicity: 0

## CCOc1ccc2c(c1)CN(Cc1ccc(Cl)cc1)CO2
Schistosoma mansoni [1]
  Toxicity: 0
Schistosoma mansoni [2]
  Toxicity: 2
Schistosoma mansoni [3]
  Toxicity: 0

## COc1cc2c3cc1Oc1c(OC)c(OC)cc4c1C(Cc1ccc(O)c(c1)Oc1ccc(cc1)CC3N(C)CC2)N(C)CC4.Cl (configuration not stated)
Schistosoma mansoni [1]
  Toxicity: 4
Schistosoma mansoni [2]
  Toxicity: 2
Schistosoma mansoni [3]
  Toxicity: 3

## COc1ccc(-c2nonc2NC(=O)c2cccc(C)c2)cc1OC
Schistosoma mansoni [1]
  Toxicity: 0
Schistosoma mansoni [2]
  Toxicity: 0
Schistosoma mansoni [3]
  Toxicity: 0

## c1ccc(Cn2c(N=Nc3c(Nc4ccccc4)ccc4ccccc34)nc3ccccc32)cc1
Schistosoma mansoni [1]
  Toxicity: 0
Schistosoma mansoni [2]
  Toxicity: 0
Schistosoma mansoni [3]
  Toxicity: 0

## COc1ccc(C(=O)Nc2ccc3nc(N4CCCCC4)cc(C)c3c2)cc1OC
Schistosoma mansoni [1]
  Toxicity: 0
Schistosoma mansoni [2]
  Toxicity: 0
Schistosoma mansoni [3]
  Toxicity: 0

## O=C(Nc1ccc(Cl)cc1)N1CCN(c2ccc3nncn3n2)CC1
Schistosoma mansoni [1]
  Toxicity: 0
Schistosoma mansoni [2]
  Toxicity: 0
Schistosoma mansoni [3]
  Toxicity: 0

## Cc1sc(NC(=O)c2ccccc2)c(C(c2cccs2)N2CCN(c3ccccc3)CC2)c1C (configuration not stated)
Schistosoma mansoni [1]
  Toxicity: 0
Schistosoma mansoni [2]
  Toxicity: 0
Schistosoma mansoni [3]
  Toxicity: 0

## COc1ccc(Nc2cc(C)nc(NCc3ccccc3)n2)cc1
Schistosoma mansoni [1]
  Toxicity: 3
Schistosoma mansoni [2]
  Toxicity: 2
Schistosoma mansoni [3]
  Toxicity: 3

## CCCOCc1cc(CN2CCN(c3cccc(Cl)c3)CC2)c(O)c2ncccc12
Schistosoma mansoni [1]
  Toxicity: 4
Schistosoma mansoni [2]
  Toxicity: 3
Schistosoma mansoni [3]
  Toxicity: 4

## N#Cc1nc(Cc2cccc3ccccc23)oc1N1CCN(C(c2ccccc2)c2ccccc2)CC1
Schistosoma mansoni [1]
  Toxicity: 0
Schistosoma mansoni [2]
  Toxicity: 0
Schistosoma mansoni [3]
  Toxicity: 0

## COc1ccc(/C=C2/SC(=Nc3ccccc3)NC2=O)cc1
Schistosoma mansoni [1]
  Toxicity: 0
Schistosoma mansoni [2]
  Toxicity: 0
Schistosoma mansoni [3]
  Toxicity: 0

## O=C(Nc1ccccc1O)c1ccc(Oc2cccc(C(=O)Nc3ccccc3O)c2)cc1
Schistosoma mansoni [1]
  Toxicity: 2
Schistosoma mansoni [2]
  Toxicity: 0
Schistosoma mansoni [3]
  Toxicity: 2

## CSC1=NC(=Nc2c(C)cccc2C)C2(CCC(C(C)(C)C)CC2)N1c1ccc(Cl)cc1 (configuration not stated)
Schistosoma mansoni [1]
  Toxicity: 0
Schistosoma mansoni [2]
  Toxicity: 1
Schistosoma mansoni [3]
  Toxicity: 1

## CCOc1ccc(CCNC(=O)c2cccs2)cc1OCC
Schistosoma mansoni [1]
  Toxicity: 0
Schistosoma mansoni [2]
  Toxicity: 0
Schistosoma mansoni [3]
  Toxicity: 0

## Cc1ccccc1OCCSc1nc2ccc(NC(=O)c3ccccc3)cc2s1
Schistosoma mansoni [1]
  Toxicity: 0
Schistosoma mansoni [2]
  Toxicity: 0
Schistosoma mansoni [3]
  Toxicity: 0

## CN1CCN(c2ccc(Nc3c4ccccc4nc4ccccc34)cc2)CC1
Schistosoma mansoni [1]
  Toxicity: 4
Schistosoma mansoni [2]
  Toxicity: 2
Schistosoma mansoni [3]
  Toxicity: 4

## Nc1ccn([C@@H]2O[C@H](CO)[C@@H](O)[C@H]2O)c(=O)n1 [CYTIDINE]
Schistosoma mansoni [1]
  Toxicity: 0
Schistosoma mansoni [2]
  Toxicity: 0
Schistosoma mansoni [3]
  Toxicity: 0

## FC(F)(F)c1cccc(Nc2nc3ccccc3nc2Nc2cccc(C(F)(F)F)c2)c1
Schistosoma mansoni [1]
  Toxicity: 4
Schistosoma mansoni [2]
  Toxicity: 3
Schistosoma mansoni [3]
  Toxicity: 4

## COc1ccc2nc(C)cc(Nc3cccc(O)c3)c2c1.Cl
Schistosoma mansoni [1]
  Toxicity: 0
Schistosoma mansoni [2]
  Toxicity: 2
Schistosoma mansoni [3]
  Toxicity: 0

## CCOc1ccc(Nc2c3ccccc3nc3ccccc23)cc1.Cl
Schistosoma mansoni [1]
  Toxicity: 4
Schistosoma mansoni [2]
  Toxicity: 2
Schistosoma mansoni [3]
  Toxicity: 3

## Cn1c(C(=O)c2cccc3ccccc23)nc2ccccc21
Schistosoma mansoni [1]
  Toxicity: 0
Schistosoma mansoni [2]
  Toxicity: 0
Schistosoma mansoni [3]
  Toxicity: 0

## COc1ccc(C(O)(CCC(C)C)C(CN2CCOCC2)c2ccc(Cl)cc2)cc1.Cl (configuration not stated)
Schistosoma mansoni [1]
  Toxicity: 0
Schistosoma mansoni [2]
  Toxicity: 0
Schistosoma mansoni [3]
  Toxicity: 0

## CC(Oc1ccc(NC(=O)c2cccs2)cc1)C(=O)c1ccc(Cl)cc1 (configuration not stated)
Schistosoma mansoni [1]
  Toxicity: 0
Schistosoma mansoni [2]
  Toxicity: 0
Schistosoma mansoni [3]
  Toxicity: 0

## COc1ccc(-c2cc3c(nn2)-c2ccccc2C3=O)cc1
Schistosoma mansoni [1]
  Toxicity: 0
Schistosoma mansoni [2]
  Toxicity: 0
Schistosoma mansoni [3]
  Toxicity: 0

## c1ccc2c(NCCc3c[nH]c4ccccc34)c3ccccc3nc2c1
Schistosoma mansoni [1]
  Toxicity: 4
Schistosoma mansoni [2]
  Toxicity: 3
Schistosoma mansoni [3]
  Toxicity: 4

## CCOc1ccc2nc(C)cc(Nc3ccc(N(C)C)cc3)c2c1.Cl
Schistosoma mansoni [1]
  Toxicity: 4
Schistosoma mansoni [2]
  Toxicity: 2
Schistosoma mansoni [3]
  Toxicity: 4

## Cc1ccc(N2C3c4ccccc4N(S(=O)(=O)c4ccc(C)cc4)C2c2ccccc2N3S(=O)(=O)c2ccc(C)cc2)cc1
Schistosoma mansoni [1]
  Toxicity: 0
Schistosoma mansoni [2]
  Toxicity: 0
Schistosoma mansoni [3]
  Toxicity: 0

## CCN1CCN(c2c(C(=O)c3ccccc3)cnc3cc(OC)c(OC)cc23)CC1
Schistosoma mansoni [1]
  Toxicity: 0
Schistosoma mansoni [2]
  Toxicity: 0
Schistosoma mansoni [3]
  Toxicity: 0

## CCN(CC)c1cc(C)c2cc(NC(=O)c3cccc(OC)c3)ccc2n1
Schistosoma mansoni [1]
  Toxicity: 0
Schistosoma mansoni [2]
  Toxicity: 2
Schistosoma mansoni [3]
  Toxicity: 0

## CC(=O)NCCc1nc2ccccc2n1Cc1ccc(C(C)C)cc1
Schistosoma mansoni [1]
  Toxicity: 0
Schistosoma mansoni [2]
  Toxicity: 0
Schistosoma mansoni [3]
  Toxicity: 0

## CN(C)CCCNc1c2ccccc2nc2ccccc12
Schistosoma mansoni [1]
  Toxicity: 4
Schistosoma mansoni [2]
  Toxicity: 2
Schistosoma mansoni [3]
  Toxicity: 2
